Where “and” joins values, the source holds several entries; their conditions need not be identical. Identical values can stand only once. Like-named read-outs stand apart in the source and are kept apart here.
Columns and labels:
[1] = Log P by potentiometric (pH-metric) octanol/water titration; type: physicochemical; details: Neutral species, […] C., […] KCl
Protocol: pKa analysis was performed using a pH-metric method. […] No precipitation or degradation was observed and two pKas were determined from the potentiometric data. Log P was determined using the potentiometric (pH-metric method). The sample was titrated in various ratios of octanol/water in two titrations covering the pH range 2.0-12.0 at concentrations of 1.9-1.1 mM. The shift of the aqueous pKas in the presence of octanol was used to determine the log P of the neutral species.

[2] = Stability of prototype patches over 6 days at 60° C.; type: physicochemical
Protocol: Naloxone N-oxide was incorporated into a prototype transdermal patch along with an opioid agonist. […] Batches of patches were prepared by weighing the appropriate amounts of the opioid agonist, Naloxone N-oxide and dry patch matrix of poly(meth)acrylate and dissolving in ethylacetate. The matrix solvent system was added and stirred for 30 minutes on a magnetic stirrer to yield a homogenous mixture. After mixing, the drug/polymer mixture was hand cast onto a release liner, Loparex Prime Liner FL 2000. Casting was carried out with a casting knife of variable width to achieve a target dry area weight matrix of 55 g/m^2. The cast was then dried at room temperature for 10 minutes, transferred to a convection oven and dried at 70° C. for 15 minutes and at 100° C. for 5 minutes. Finally the dried casts were hand-laminated with an occlusive backing, Scotchpak 9738, and patches were cut out of the laminate with 0.82 cm^2 cutting dies for skin permeation and 5 cm^2 for stability experiments.
The stability of each of the patches over 6 days at 60° C. was also tested.

[3] = Intrinsic in vitro skin permeation of saturated antagonist solutions (Franz cell); type: in vitro ADME; details: saturated donor solution pH 5.0, human skin
Protocol: The determination of in vitro skin permeation was performed with saturated solutions of the respective antagonist species. Therefore an excess of the antagonist was weighed in phosphate buffer of pH 5.0 and stirred overnight. pH was monitored and, if necessary, adjusted. The cells were incubated at 32° C. Solutions were filtrated through a syringe filter (1 μm PTFE) prior to application into the diffusion cells. Concentrations of the solutions were determined.
Diffusion cells (made of glass) with a vertical application and a volume of 5 ml were used. The human skin used for the analysis came from an aesthetic operation. Belly skin from female donors was supplied from plastic surgery. After arrival, skin was visually checked whether it was without any scars and stretch marks. A layer of 200-400 μm was cut with a dermatome. The permeation area of 0.82 cm^2 was punched out of the skin.
The diffusion cell consists of a donor chamber and a receptor compartment, the skin is fixed between both. The sampling and volume replacement were executed via an autosampler.

[4] = +37° C.; for Mean concentration of Naloxone N-oxide in human plasma samples / Mean concentration of Naloxone N-oxide in human whole blood samples: mean of n=3; for Concentrations of Naloxone N-oxide in human plasma samples / Concentrations of Naloxone N-oxide in human whole blood samples: single replicates
Description: Analytical procedures followed were based on those outlined in the “Guideline on Bioanalytical Method Validation”, EMA, CHMP, EWP, July 2011 and “Reflection paper for laboratories that perform the analysis or evaluation of clinical trial samples, 28 Feb. 2012, EMA/INS/GCP/532137/2010” with reference to the “Guidance for Industry, Bioanalytical Method Validation” recommendations issued by the U.S. Department of Health and Human Services, Food and Drug Administration, Center for Drug Evaluation and Research (CDER), Center for Veterinary Medicine (CVM), May 2001, BP.
Control blank human plasma and blood containing K2EDTA as an anti-coagulant, was obtained from Clinical Trials Laboratory Service or BAS volunteers and was stored at nominally −20° C. and +4° C., respectively, when not in use. The mass spectrometer used was an Applied Biosystems AP15000 with the following settings:
All instrument control, data collection, peak area integration and storage was performed using Analyst (version 1.5.2). Peak areas were then imported into Watson LIMS (version 7.2.0.02) for regression and quantification. The mass spectrometer response (peak area ratio of analyte to internal standard) of each calibration standard was calculated by Watson LIMS and plotted against the nominal (prepared) concentration. A weighted (1/x^2) least squares linear regression analysis was used to calculate an equation of the calibration line.
Any concentrations below this level are reported as below the limit of quantification (BLQ). Samples with initial concentrations above the upper limit of quantification ([…]) were re-injected with a reduced injection volume (alongside QC High with reduced injection volume) and sample concentrations interpolated against a calibration curve injected with normal injection volume.

[5] = spiked with Naloxone-N-oxide 10 ng/mL, 0 minutes
[6] = spiked with Naloxone-N-oxide 10 ng/mL, 10 minutes
[7] = spiked with Naloxone-N-oxide 10 ng/mL, 20 minutes
[8] = spiked with Naloxone-N-oxide 10 ng/mL, 30 minutes
[9] = spiked with Naloxone-N-oxide 10 ng/mL, 45 minutes
[10] = spiked with Naloxone-N-oxide 10 ng/mL, 60 minutes
[11] = spiked with Naloxone-N-oxide 10 ng/mL, 120 minutes
[12] = spiked with Naloxone-N-oxide 50 ng/mL, 0 minutes
[13] = spiked with Naloxone-N-oxide 50 ng/mL, 10 minutes
[14] = spiked with Naloxone-N-oxide 50 ng/mL, 20 minutes

## C=CC[N+]1([O-])CC[C@]23c4c5ccc(O)c4O[C@H]2C(=O)CC[C@@]3(O)[C@H]1C5 (stereo partly shown) [Naloxone N-oxide]
[1]
  logP: −0.42
[2]
  Impact on the stability of the patch: does not impact on the stability of the patch
[3]
  Permeation through the skin (in words): Naloxone N-oxide did not permeate through the skin.
[4]; 2 hour time course
  Conversion of Naloxone-N-oxide to Naloxone in plasma (in words): small, but insignificant amount of conversion
  Conversion to Naloxone in whole blood (in words): rapidly converts to Naloxone in whole blood
[4]; [5]
  Mean concentration of Naloxone N-oxide in human plasma samples: 10.0 ng/mL
  Mean concentration of Naloxone N-oxide in human whole blood samples: 7.45 ng/mL
  Concentrations of Naloxone N-oxide in human plasma samples: 9.93 ng/mL and 9.87 ng/mL and 10.2 ng/mL
  Concentrations of Naloxone N-oxide in human whole blood samples: 7.95 ng/mL and 7.69 ng/mL and 6.70 ng/mL
[4]; [6]
  Mean concentration of Naloxone N-oxide in human plasma samples: 10.2 ng/mL
  Mean concentration of Naloxone N-oxide in human whole blood samples: 6.02 ng/mL
  Concentrations of Naloxone N-oxide in human plasma samples: 9.61 ng/mL and 10.4 ng/mL and 10.7 ng/mL
  Concentrations of Naloxone N-oxide in human whole blood samples: 5.94 ng/mL and 6.11 ng/mL and 6.01 ng/mL
[4]; [7]
  Mean concentration of Naloxone N-oxide in human plasma samples: 10.3 ng/mL
  Mean concentration of Naloxone N-oxide in human whole blood samples: 4.53 ng/mL
  Concentrations of Naloxone N-oxide in human plasma samples: 10.6 ng/mL and 10.3 ng/mL and 9.93 ng/mL
  Concentrations of Naloxone N-oxide in human whole blood samples: 4.70 ng/mL and 4.15 ng/mL and 4.75 ng/mL
[4]; [8]
  Mean concentration of Naloxone N-oxide in human plasma samples: 9.96 ng/mL
  Mean concentration of Naloxone N-oxide in human whole blood samples: 3.13 ng/mL
  Concentrations of Naloxone N-oxide in human plasma samples: 9.37 ng/mL and 10.1 ng/mL and 10.4 ng/mL
  Concentrations of Naloxone N-oxide in human whole blood samples: 2.77 ng/mL and 3.14 ng/mL and 3.47 ng/mL
[4]; [9]
  Mean concentration of Naloxone N-oxide in human plasma samples: 10.4 ng/mL
  Mean concentration of Naloxone N-oxide in human whole blood samples: 2.15 ng/mL
  Concentrations of Naloxone N-oxide in human plasma samples: 10.7 ng/mL and 10.0 ng/mL and 10.4 ng/mL
  Concentrations of Naloxone N-oxide in human whole blood samples: 2.18 ng/mL and 2.27 ng/mL and 2.01 ng/mL
[4]; [10]
  Mean concentration of Naloxone N-oxide in human plasma samples: 10.3 ng/mL
  Mean concentration of Naloxone N-oxide in human whole blood samples: 1.87 ng/mL
  Concentrations of Naloxone N-oxide in human plasma samples: 10.3 ng/mL and 10.6 ng/mL and 10.1 ng/mL
  Concentrations of Naloxone N-oxide in human whole blood samples: 1.79 ng/mL and 1.81 ng/mL and 2.02 ng/mL
[4]; [11]
  Mean concentration of Naloxone N-oxide in human plasma samples: 10.3 ng/mL
  Mean concentration of Naloxone N-oxide in human whole blood samples: 1.51 ng/mL
  Concentrations of Naloxone N-oxide in human plasma samples: 10.4 ng/mL (2×) and 10.1 ng/mL
  Concentrations of Naloxone N-oxide in human whole blood samples: 1.55 ng/mL and 1.57 ng/mL and 1.41 ng/mL
[4]; [12]
  Mean concentration of Naloxone N-oxide in human plasma samples: 44.9 ng/mL
  Mean concentration of Naloxone N-oxide in human whole blood samples: 45.4 ng/mL
  Concentrations of Naloxone N-oxide in human plasma samples: 48.5 ng/mL and 45.6 ng/mL and 40.5 ng/mL
  Concentrations of Naloxone N-oxide in human whole blood samples: 48.9 ng/mL and 41.3 ng/mL and 46.0 ng/mL
[4]; [13]
  Mean concentration of Naloxone N-oxide in human plasma samples: 46.0 ng/mL
  Mean concentration of Naloxone N-oxide in human whole blood samples: 25.9 ng/mL
  Concentrations of Naloxone N-oxide in human plasma samples: 43.4 ng/mL and 48.7 ng/mL and 45.8 ng/mL
  Concentrations of Naloxone N-oxide in human whole blood samples: 26.0 ng/mL and 25.0 ng/mL and 26.8 ng/mL
[4]; [14]
  Mean concentration of Naloxone N-oxide in human plasma samples: 48.4 ng/mL
  Mean concentration of Naloxone N-oxide in human whole blood samples: 20.4 ng/mL
  Concentrations of Naloxone N-oxide in human plasma samples: 50.1 ng/mL and 47.1 ng/mL and 48.1 ng/mL
  Concentrations of Naloxone N-oxide in human whole blood samples: 20.3 ng/mL and 21.1 ng/mL and 19.9 ng/mL
[4]; spiked with Naloxone-N-oxide 50 ng/mL, 30 minutes
  Mean concentration of Naloxone N-oxide in human plasma samples: 46.3 ng/mL

— US20180344726A1, “ABUSE RESISTANT TRANSDERMAL DELIVERY DEVICES AND COMPOSITIONS COMPRISING AN OPIOID AGONIST AND A NON-TRANSDERMALLY DELIVERED N-OXIDE DERIVATIVE OF AN OPIOID ANTAGONIST FOR THE TREATMENT OF PAIN” (priority 2015, published 2018)
